Data on 14 compounds can be found in patent US20230365571A1, “COMPOUNDS AND COMPOSITIONS AS Sppl2a INHIBITORS” (Novartis AG, priority 2020, published 2023).

Assay [1] has as its target T1, human SPPL2a (Homo sapiens, UniProt Q8TCT8).
T1 sequence (Q8TCT8 26-520): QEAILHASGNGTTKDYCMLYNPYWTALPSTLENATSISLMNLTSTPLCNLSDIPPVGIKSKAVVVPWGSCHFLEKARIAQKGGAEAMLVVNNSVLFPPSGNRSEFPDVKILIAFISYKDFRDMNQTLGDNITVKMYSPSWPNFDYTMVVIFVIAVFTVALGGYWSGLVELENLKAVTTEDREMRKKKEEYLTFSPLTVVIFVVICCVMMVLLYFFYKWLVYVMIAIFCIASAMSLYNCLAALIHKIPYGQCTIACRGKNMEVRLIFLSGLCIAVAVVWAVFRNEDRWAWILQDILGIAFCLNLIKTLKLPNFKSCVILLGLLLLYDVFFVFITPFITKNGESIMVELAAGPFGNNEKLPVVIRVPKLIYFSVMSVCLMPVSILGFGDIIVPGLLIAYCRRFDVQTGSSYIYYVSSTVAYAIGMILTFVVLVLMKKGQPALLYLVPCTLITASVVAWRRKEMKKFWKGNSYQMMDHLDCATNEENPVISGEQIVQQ
The assay can be described thus: Sppl2a TL (translocation) imaging assay in U-2 OS cells. The conditions noted are these: U-2 OS cells expressing human SPPL2a and EGFP-TNFα(aa1-76) NTF substrate; 24 h. The arrangement: expressed in transfected cells. It is filed as cell-based. Here is the method:
SPPL2a, TL in U-2 OS Cells. Stable U-2 OS cell lines expressing human SPPL2a constitutively and a EGFP-labeled TNFα(aa1-76) NTF substrate under a doxycycline-regulated promoter were used for the imaging assays. Cells were seeded at 3000 cells/30 μL/384-well in DMEM/GlutaMax™-I (Invitrogen) supplemented with tetracycline-free 10% FBS (Amimed) and incubated at 37° C., 5% CO2 for 3-4 h. Subsequently, 3.3 μL of inhibitors, prediluted in doxycycline-containing medium for 11-point concentration-response curves, were added to each well using a CyBi well liquid handling device (Cybio AG, Jena, Germany) to result in final inhibitor concentrations ranging from 100 μM to 1 nM (final DMSO concentration 0.9% (v/v)) and 5 μg/mL doxycycline). The cells were incubated with inhibitor at 37° C., 5% CO2 for 24 h. Thereafter cell were fixed in 4% PFA/PBS and in parallel, nuclei were stained with Hoechst (Invitrogen) 1:5000 in PBS for 30 min. The plates were imaged using a Cellomics ArrayScan VTI HCS reader with 10×/0.3NA objective (Thermo Fisher Scientific, USA). Six images per well were acquired. Images for the EGFP signal (Ex395, Em509) and the Hoechst nuclear dye (Ex350, Em425) were acquired simultaneously with image analysis using the “Nuclear Translocation” assay algorithm of the Cellomics ArrayScan software. Nuclei were detected based on the Hoechst staining, the nuclear mask was transferred to the EGFP channel, and a 4 pixel wide cytoplasm ring region was defined around the nucleus. The intensity of the EGFP signal was measured both in the nuclear and in the cytoplasm ring region of each individual cell (in general 800-1000 individual cells were analyzed per well), and the difference of the average nuclear versus average cytoplasmic intensity of the EGFP signal was calculated (“CircRingAvgIntenDiffCh2”=“CircAvgIntenCh2”−“RingAvgIntenCh2”). Additionally the number of cells were acquired (feature termed “ValidCellCount”) and used to calculate cell toxicity (CC50). Percent inhibition was calculated relative to the positive (0.5 μM LY-411,575=100% inhibition) and negative (DMSO=0% inhibition) controls. The IC50 value was calculated from the plot of percentage of inhibition vs inhibitor concentration using nonlinear regression analysis software, e.g., Origin (OriginLab Corp.).

Assay [2] has as its target T1, human SPPL2a. In words: Sppl2a RGA (reporter gene assay) in HEK293 cells. It is filed as cell-based. Also on record: expressed in transfected cells; host or cells: HEK293 (transient). As to conditions: NT-TNF-VP16-Gal4 substrate, Gal4-luciferase reporter, 24 h. From the text: Sppl2a RGA (Reporter Gene Assay):
Sppl2a is an intramembrane aspartyl protease with similarities to presenilin, the active subunit of the γ-secretase complex. The assay is based on the coupling of the proteolytic degradation of a membrane bound synthetic substrate (VP16-Gal4 fusion protein with the N-terminal domain of TNF alpha), which migrates to the nucleus upon cleavage, with the Gal4 driven expression of luciferase. Inhibition of Sppl2a results in a reduction of nuclear VP16-Gal4 activator and therefore in a reduction of the production of luciferase. The luciferase dependent-luminescence is plotted against the concentrations of compound to generate a dose response curve, which allows the calculation of the IC50 value.
DNA vectors encoding human Sppl2a, NT-TNF-VP16-Gal4 and a Gal4-luciferase reporter were transiently transfected in HEK293 cells. In a typical experiment 5 μg plasmid for SPPL2a, 10 μg plasmid encoding the reporter Gal4-luciferase and 20 μg plasmid encoding the substrate NT-TF-VP16-Gal4 were mixed together. The DNA mixture was combined with 107 μl FuGENE® (Promega), 735 μl Opti-MEM® (Life Technologies) and incubated for 5 minutes at RT. To this mixture 20 mL of concentrated HEK293 cells were added and thoroughly mixed. The cell suspension was distributed to a white solid 384 well plate. Within 5 hours, 50 nl of compound in DMSO was stamped into the wells via pintool. The plate was incubated for 24 h at 37° C., 5% CO2 in a humidified incubator, before the addition of 25 μl Bright Glo. After incubation at RT for 5 min, the plate was transferred to a luminometer and the luminescence was measured. The IC50 was determined by plotting compound concentration vs. normalized luminescence values.
(In general: A reporter such as luciferase makes a cellular process visible.)

For `Cc1cnoc1C(=O)NC[C@H](C(=O)N[C@@H]1C(=O)N2CCCN2C(=O)c2ccccc21)C(F)(F)F` [Example 2, N—((R)-2-(((S)-5,11-dioxo-2,3,10,11-tetrahydro-1H,5H-benzo[d]pyrazolo[1,2-a][1,2]diazepin-10-yl)carbamoyl)-3,3,3-trifluoropropyl)-4-methylisoxazole-5-carboxamide], the results for the IC50 on human SPPL2a [1] and against human SPPL2a [2] were 450 nM and 180 nM, respectively.

As to `CC[C@H](CNC(=O)c1sc(-c2ccc(C(F)(F)F)nc2)nc1Cl)C(=O)N[C@@H]1C(=O)N2CCCN2Cc2ccccc21` [Example 15, 4-Chloro-N-((R)-2-(((S)-11-oxo-2,3,10,11-tetrahydro-1H,5H-benzo[d]pyrazolo [1,2-a][1,2]diazepin-10-yl)carbamoyl)butyl)-2-(6-(trifluoromethyl)pyridin-3-yl)thiazole-5-carboxamide], the IC50 (usually the point on the concentration scale where inhibition reaches its midpoint) against human SPPL2a [1] was 11 nM; at human SPPL2a [2] it was 8 nM.

With `CC[C@H](CNC(=O)c1sc(-c2ccc(C(F)(F)F)nc2)nc1C)C(=O)N[C@@H]1C(=O)N2CCCN2Cc2ccccc21` [Example 18, 4-Methyl-N-((R)-2-(((S)-11-oxo-2,3,10,11-tetrahydro-1H,5H-benzo[d]pyrazolo [1,2-a][1,2]diazepin-10-yl)carbamoyl)butyl)-2-(6-(trifluoromethyl)pyridin-3-yl)thiazole-5-carboxamide], the IC50 against human SPPL2a [1] was found to be 12 nM; at human SPPL2a [2], 3 nM.

With `CC[C@H](CNC(=O)c1sc(-c2cc(C)no2)nc1C)C(=O)N[C@@H]1C(=O)N2CCCN2Cc2ccccc21` [Example 20, 4-Methyl-2-(3-methylisoxazol-5-yl)-N-((R)-2-(((S)-11-oxo-2,3,10,11-tetrahydro-1H,5H-benzo[d]pyrazolo [1,2-a][1,2]diazepin-10-yl)carbamoyl)butyl) thiazole-5-carboxamide], the IC50 at human SPPL2a [1] was 12 nM; at human SPPL2a [2], 220 nM.

As to `CC[C@H](CNC(=O)c1sc(C2=CCCC2)nc1Cl)C(=O)N[C@@H]1C(=O)N2CCCN2C(=O)c2ccccc21` [Example 28, 4-Chloro-2-(cyclopent-1-en-1-yl)-N-((R)-2-(((S)-5,11-dioxo-2,3,10,11-tetrahydro-1H,5H-benzo[d]pyrazolo [1,2-a][1,2]diazepin-10-yl)carbamoyl)butyl) thiazole-5-carboxamide], the IC50 at human SPPL2a [1] stood at 28 nM; against human SPPL2a [2], 88 nM.

On to `CC[C@H](CNC(=O)c1scnc1C)C(=O)N[C@@H]1C(=O)N2CCCN2Cc2ccccc21` [Example 29, 4-Methyl-N-((R)-2-(((S)-11-oxo-2,3,10,11-tetrahydro-1H,5H-benzo[d]pyrazolo [1,2-a][1,2]diazepin-10-yl)carbamoyl)butyl) thiazole-5-carboxamide], for which the IC50 on human SPPL2a [1] amounted to 29 nM; against human SPPL2a [2], 84 nM.

On to `CCCOc1nc(C)c(C(=O)NC[C@@H](CC)C(=O)N[C@@H]2C(=O)N3CCCN3Cc3ccccc32)s1` [Example 30, 4-Methyl-N-((R)-2-(((S)-11-oxo-2,3,10,11-tetrahydro-1H,5H-benzo[d]pyrazolo [1,2-a][1,2]diazepin-10-yl)carbamoyl)butyl)-2-propoxythiazole-5-carboxamide], for which the IC50 against human SPPL2a [1] worked out at 29 nM; on human SPPL2a [2], 16 nM.

Consider `CC[C@H](CNC(=O)c1c(C)noc1C(F)(F)F)C(=O)N[C@@H]1C(=O)N2CC3(CC3)CN2C(=O)c2ccccc21` [Example 31, N-((R)-2-(((S)-5,11-Dioxo-10,11-dihydro-1H,3H,5H-spiro[benzo[d]pyr-azolo[1,2-a][1,2]diazepine-2,1′-cyclopropan]-10-yl)carbamoyl)butyl)-3-methyl-5-(trifluoromethyl) isoxazole-4-carboxamide], for which the IC50 was 33 nM at human SPPL2a [1] and 22 nM at human SPPL2a [2].

With `CC[C@H](CNC(=O)c1sc(-c2ccc(OC)nc2)nc1Cl)C(=O)N[C@@H]1C(=O)N2CCCN2C(=O)c2ccccc21` [Example 34, 4-Chloro-N-((R)-2-(((S)-5,11-dioxo-2,3,10,11-tetrahydro-1H,5H-benzo[d]pyrazolo [1,2-a][1,2]diazepin-10-yl)carbamoyl)butyl)-2-(6-methoxypyridin-3-yl)thiazole-5-carboxamide], the IC50 stood at 43 nM against human SPPL2a [1] and 50 nM against human SPPL2a [2].

Take `CC[C@H](CNC(=O)c1sncc1C)C(=O)N[C@@H]1C(=O)N2CCCN2C(=O)c2ccccc21` [Example 35, N-((R)-2-(((S)-5,11-Dioxo-2,3,10,11-tetrahydro-1H,5H-benzo[d]pyrazolo [1,2-a][1,2]diazepin-10-yl)carbamoyl)butyl)-4-methylisothiazole-5-carboxamide]: the figures for the IC50 against human SPPL2a [1] and on human SPPL2a [2] were 45 nM and 34 nM, respectively.

In the case of `CCc1nnsc1C(=O)NC[C@@H](CC)C(=O)N[C@@H]1C(=O)N2CC3(CC3)CN2C(=O)c2ccccc21` [Example 36, N-((R)-2-(((S)-5,11-Dioxo-10,11-dihydro-1H,3H,5H-spiro[benzo[d]pyr-azolo[1,2-a][1,2]diazepine-2,1′-cyclopropan]-10-yl)carbamoyl)butyl)-4-ethyl-1,2,3-thiadiazole-5-carboxamide], the IC50 was 45 nM at human SPPL2a [1] and 34 nM against human SPPL2a [2].

Consider `CC[C@H](CNC(=O)c1sc(-c2ccc(OC(F)F)nc2)nc1Cl)C(=O)N[C@@H]1C(=O)N2CCCN2C(=O)c2ccccc21` [Example 37, 4-Chloro-2-(6-(difluoromethoxy)pyridin-3-yl)-N-((R)-2-(((S)-5,11-dioxo-2,3,10,11-tetrahydro-1H,5H-benzo[d]pyrazolo [1,2-a][1,2]diazepin-10-yl)carbamoyl)butyl) thiazole-5-carboxamide], for which the values for the IC50 against human SPPL2a [1] and against human SPPL2a [2] were 53 nM and 32 nM, respectively.

On to `Cc1nc(-c2ccc(C(F)(F)F)nc2)sc1C(=O)NC[C@H](C(=O)N[C@@H]1C(=O)N2CCCN2C(=O)c2ccccc21)C(F)(F)F` [Example 38, N-((R)-2-(((S)-5,11-Dioxo-2,3,10,11-tetrahydro-1H,5H-benzo[d]pyrazolo [1,2-a][1,2]diazepin-10-yl)carbamoyl)-3,3,3-trifluoropropyl)-4-methyl-2-(6-(trifluoromethyl)pyridin-3-yl)thiazole-5-carboxamide], for which the IC50 worked out at 54 nM on human SPPL2a [1] and 43 nM at human SPPL2a [2].

`CC[C@H](CNC(=O)c1scnc1Cl)C(=O)N[C@@H]1C(=O)N2CCCN2Cc2ccccc21` [Example 39, 4-Chloro-N-((R)-2-(((S)-11-oxo-2,3,10,11-tetrahydro-1H,5H-benzo[d]pyrazolo [1,2-a][1,2]diazepin-10-yl)carbamoyl)butyl) thiazole-5-carboxamide]: the IC50 was found to be 54 nM against human SPPL2a [1] and 24 nM at human SPPL2a [2].
